Laboratory results as given in patent US8440710B2, “HSL inhibitors useful in the treatment of diabetes” (Hoffmann-La Roche Inc., priority 2009, dated 2013).

Target: T1, human HSL (Homo sapiens, UniProt Q05469)
T1 construct: generate a full length human HSL ORF with a 3′-His6 tag; made in house; host or cells: High 5 insect cells (baculovirus, pFast-BAC)
T1 sequence (Q05469 1-1076): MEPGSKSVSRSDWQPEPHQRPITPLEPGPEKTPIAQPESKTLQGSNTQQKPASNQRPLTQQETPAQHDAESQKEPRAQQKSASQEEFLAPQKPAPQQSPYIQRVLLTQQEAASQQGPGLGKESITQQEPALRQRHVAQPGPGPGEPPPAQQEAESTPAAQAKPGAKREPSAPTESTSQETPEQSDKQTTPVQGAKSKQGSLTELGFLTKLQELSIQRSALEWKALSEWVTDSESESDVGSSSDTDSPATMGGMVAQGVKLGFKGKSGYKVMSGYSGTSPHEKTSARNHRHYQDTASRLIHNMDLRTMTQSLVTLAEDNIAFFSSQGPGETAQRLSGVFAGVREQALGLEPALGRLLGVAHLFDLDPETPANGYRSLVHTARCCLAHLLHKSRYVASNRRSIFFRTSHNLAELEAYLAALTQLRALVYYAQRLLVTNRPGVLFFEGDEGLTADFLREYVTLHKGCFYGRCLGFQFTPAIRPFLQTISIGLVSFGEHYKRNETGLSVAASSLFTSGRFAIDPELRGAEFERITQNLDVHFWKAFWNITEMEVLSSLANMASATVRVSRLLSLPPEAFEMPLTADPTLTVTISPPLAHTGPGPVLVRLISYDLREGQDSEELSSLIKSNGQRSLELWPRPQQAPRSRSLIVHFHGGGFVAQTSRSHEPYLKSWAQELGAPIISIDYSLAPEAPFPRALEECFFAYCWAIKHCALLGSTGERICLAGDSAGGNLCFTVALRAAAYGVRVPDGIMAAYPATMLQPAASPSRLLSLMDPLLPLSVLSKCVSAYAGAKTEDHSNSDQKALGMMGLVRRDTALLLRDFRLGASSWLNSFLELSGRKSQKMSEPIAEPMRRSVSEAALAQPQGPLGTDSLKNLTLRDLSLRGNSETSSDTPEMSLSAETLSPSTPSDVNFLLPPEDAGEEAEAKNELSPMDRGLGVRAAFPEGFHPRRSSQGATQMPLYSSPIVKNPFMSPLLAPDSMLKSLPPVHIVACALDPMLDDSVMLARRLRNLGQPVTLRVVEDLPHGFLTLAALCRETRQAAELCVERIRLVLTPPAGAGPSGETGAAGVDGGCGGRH
Experiment: Human Hormone-Sensitive Lipase (HSL) enzyme inhibition assay (colorimetric, DMPT substrate)
Type: biochemical
Conditions: human full length HSL-His6, 2,3-dimercapto-1-propanol tributyrate substrate, 37° C. 20 minutes, absorbance at 405 nm; read-out: HSL hum IC50
How it was run: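 Full-length human HSL with C-terminal His6, expressed in baculovirus-infected High 5 cells and Ni-NTA purified, was added (15 ug/ml stock) to 1.5 mM DMPT in 100 mM MOPS pH 7.2, 0.2 mg/ml fatty acid-free BSA containing compound. After 20 min at 37 °C, DTNB with SDS/Triton X-100 was added; A405 read after 15 min at RT.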

Row | Compound | IC50 [nM]
1 | CS(=O)(=O)C[C@]1(O)CC[C@]2(CCN(c3ccc(OCC(F)(F)F)cc3)C2=O)CC1 [Example 304, (5α,8α)-8-Hydroxy-8-methanesulfonylmethyl-2-[4-(2,2,2-trifluoro-ethoxy)-phenyl]-2-aza-spiro[4.5]decan-1-one] | 330
2 | CCCS(=O)(=O)C[C@]1(O)CC[C@]2(CCN(c3ccc(OCC(F)(F)F)cc3)C2=O)CC1 [Example 305, (5α,8α)-8-Hydroxy-8-(propane-1-sulfonylmethyl)-2-[4-(2,2,2-trifluoro-ethoxy)-phenyl]-2-aza-spiro[4.5]decan-1-one] | 30
3 | CC(C)SC[C@]1(O)CC[C@]2(CCN(c3ccc(OCC(F)(F)F)cc3)C2=O)CC1 [Example 306, (5α,8α)-8-Hydroxy-8-isopropylsulfanylmethyl-2-[4-(2,2,2-trifluoro-ethoxy)-phenyl]-2-aza-spiro[4.5]decan-1-one] | 10
4 | CC(C)OC[C@]1(O)CC[C@@]2(CCN(c3ccc(O[C@@H](C)C(F)(F)F)cc3)C2=O)CC1 [Example 307, (5α,8β)-8-Hydroxy-8-isopropoxymethyl-2-[4-((S)-2,2,2-trifluoro-1-methyl-ethoxy)-phenyl]-2-aza-spiro[4.5]decan-1-one] | 200
5 | CC(C)OC[C@]1(O)CC[C@]2(CCN(c3ccc(O[C@@H](C)C(F)(F)F)cc3)C2=O)CC1 [Example 308, (5α,8α)-8-Hydroxy-8-isopropoxymethyl-2-[4-((S)-2,2,2-trifluoro-1-methyl-ethoxy)-phenyl]-2-aza-spiro[4.5]decan-1-one] | 10
6 | CC(C)OC[C@]1(O)CC[C@]2(CCN(c3ccc(O[C@H](C)C(F)(F)F)cc3)C2=O)CC1 [Example 310, (5α,8α)-8-Hydroxy-8-isopropoxymethyl-2-[4-((R)-2,2,2-trifluoro-1-methyl-ethoxy)-phenyl]-2-aza-spiro[4.5]decan-1-one] | 10
7 | CC(C)[S+]([O-])C[C@]1(O)CC[C@]2(CCN(c3ccc(OCC(F)(F)F)cc3)C2=O)CC1 (stereo partly drawn) [Example 317, (5α,8α)-8-Hydroxy-8-(propane-2-sulfinylmethyl)-2-[4-(2,2,2-trifluoro-ethoxy)-phenyl]-2-aza-spiro[4.5]decan-1-one] | 200
8 | CC(C)(C)SC[C@]1(O)CC[C@]2(CCN(c3ccc(OCC(F)(F)F)cc3)C2=O)CC1 [Example 319, (5α,8α)-8-tert-Butylsulfanylmethyl-8-hydroxy-2-[4-(2,2,2-trifluoro-ethoxy)-phenyl]-2-aza-spiro[4.5]decan-1-one] | 10
9 | CC(C)(C)S(=O)(=O)C[C@]1(O)CC[C@]2(CCN(c3ccc(OCC(F)(F)F)cc3)C2=O)CC1 [Example 322, (5α,8α)-8-Hydroxy-8-(2-methyl-propane-2-sulfonylmethyl)-2-[4-(2,2,2-trifluoro-ethoxy)-phenyl]-2-aza-spiro[4.5]decan-1-one] | 20
10 | C[C@@H](Oc1ccc(N2CC[C@]3(CC[C@@](O)(COCC(F)(F)F)CC3)C2=O)cn1)C(F)(F)F [Example 327, (5α,8α)-8-Hydroxy-8-(2,2,2-trifluoro-ethoxymethyl)-2-[6-((R)-2,2,2-trifluoro-1-methyl-ethoxy)-pyridin-3-yl]-2-aza-spiro[4.5]decan-1-one] | 30

Next, values leading:

Row | IC50 [nM] | Compound
11 | 10 | CC(C)OC[C@]1(O)CC[C@]2(CCN(c3ccc(O[C@@H](C)C(F)(F)F)nc3)C2=O)CC1 [Example 309, (5α,8α)-8-Hydroxy-8-isopropoxymethyl-2-[6-((S)-2,2,2-trifluoro-1-methyl-ethoxy)-pyridin-3-yl]-2-aza-spiro[4.5]decan-1-one]
12 | 30 | CCOC[C@]1(O)CC[C@]2(CCN(c3ccc(O[C@H](C)C(F)(F)F)nc3)C2=O)CC1 [Example 311, (5α,8α)-8-Ethoxymethyl-8-hydroxy-2-[6-((R)-2,2,2-trifluoro-1-methyl-ethoxy)-pyridin-3-yl]-2-aza-spiro[4.5]decan-1-one]
13 | 10 | CCCOC[C@]1(O)CC[C@]2(CCN(c3ccc(O[C@H](C)C(F)(F)F)nc3)C2=O)CC1 [Example 312, (5α,8α)-8-Hydroxy-8-propoxymethyl-2-[6-((R)-2,2,2-trifluoro-1-methyl-ethoxy)-pyridin-3-yl]-2-aza-spiro[4.5]decan-1-one]
14 | 280 | C[C@@H](Oc1ccc(N2CC[C@]3(CC[C@](O)(COCC(F)F)CC3)C2=O)cn1)C(F)(F)F [Example 313, (5α,8β)-8-(2,2-Difluoro-ethoxymethyl)-8-hydroxy-2-[6-((R)-2,2,2-trifluoro-1-methyl-ethoxy)-pyridin-3-yl]-2-aza-spiro[4.5]decan-1-one]
15 | 20 | C[C@@H](Oc1ccc(N2CC[C@]3(CC[C@@](O)(COCC(F)F)CC3)C2=O)cn1)C(F)(F)F [Example 314, (5α,8α)-8-(2,2-Difluoro-ethoxymethyl)-8-hydroxy-2-[6-((R)-2,2,2-trifluoro-1-methyl-ethoxy)-pyridin-3-yl]-2-aza-spiro[4.5]decan-1-one]
16 | 180 | CC(C)OC[C@]1(O)CC[C@@]2(CCN(c3ccc(O[C@H](C)C(F)(F)F)nc3)C2=O)CC1 [Example 315, (5α,8β)-8-Hydroxy-8-isopropoxymethyl-2-[6-((R)-2,2,2-trifluoro-1-methyl-ethoxy)-pyridin-3-yl]-2-aza-spiro[4.5]decan-1-one]
17 | 20 | CC(C)OC[C@]1(O)CC[C@]2(CCN(c3ccc(O[C@H](C)C(F)(F)F)nc3)C2=O)CC1 [Example 316, (5α,8α)-8-Hydroxy-8-isopropoxymethyl-2-[6-((R)-2,2,2-trifluoro-1-methyl-ethoxy)-pyridin-3-yl]-2-aza-spiro[4.5]decan-1-one]
18 | 30 | CC(C)S(=O)(=O)C[C@]1(O)CC[C@]2(CCN(c3ccc(OCC(F)(F)F)cc3)C2=O)CC1 [Example 318, (5α,8α)-8-Hydroxy-8-(propane-2-sulfonylmethyl)-2-[4-(2,2,2-trifluoro-ethoxy)-phenyl]-2-aza-spiro[4.5]decan-1-one]
19 | 10 | CC(C)SC[C@]1(O)CC[C@]2(CCN(c3ccc(O[C@@H](C)C(F)(F)F)nc3)C2=O)CC1 [Example 320, (5α,8α)-8-Hydroxy-8-isopropylsulfanylmethyl-2-[6-((S)-2,2,2-trifluoro-1-methyl-ethoxy)-pyridin-3-yl]-2-aza-spiro[4.5]decan-1-one]
20 | 10 | CC(C)SC[C@]1(O)CC[C@]2(CCN(c3ccc(O[C@H](C)C(F)(F)F)nc3)C2=O)CC1 [Example 321, (5α,8α)-8-Hydroxy-8-isopropylsulfanylmethyl-2-[6-((R)-2,2,2-trifluoro-1-methyl-ethoxy)-pyridin-3-yl]-2-aza-spiro[4.5]decan-1-one]
21 | 10 | CC(C)S(=O)(=O)C[C@]1(O)CC[C@]2(CCN(c3ccc(O[C@@H](C)C(F)(F)F)nc3)C2=O)CC1 [Example 323, (5α,8α)-8-Hydroxy-8-(propane-2-sulfonylmethyl)-2-[6-((S)-2,2,2-trifluoro-1-methyl-ethoxy)-pyridin-3-yl]-2-aza-spiro[4.5]decan-1-one]
22 | 20 | CC(C)S(=O)(=O)C[C@]1(O)CC[C@]2(CCN(c3ccc(O[C@H](C)C(F)(F)F)nc3)C2=O)CC1 [Example 324, (5α,8α)-8-Hydroxy-8-(propane-2-sulfonylmethyl)-2-[6-((R)-2,2,2-trifluoro-1-methyl-ethoxy)-pyridin-3-yl]-2-aza-spiro[4.5]decan-1-one]
23 | 10 | C[C@H](Oc1ccc(N2CC[C@]3(CC[C@@](O)(CS(=O)(=O)C(C)(C)C)CC3)C2=O)cn1)C(F)(F)F [Example 325, (5α,8α)-8-Hydroxy-8-(2-methyl-propane-2-sulfonylmethyl)-2-[6-((S)-2,2,2-trifluoro-1-methyl-ethoxy)pyridin-3-yl]-2-aza-spiro[4.5]decan-1-one]
24 | 10 | C[C@@H](Oc1ccc(N2CC[C@]3(CC[C@@](O)(CS(=O)(=O)C(C)(C)C)CC3)C2=O)cn1)C(F)(F)F [Example 326, (5α,8α)-8-Hydroxy-8-(2-methyl-propane-2-sulfonylmethyl)-2-[6-((R)-2,2,2-trifluoro-1-methyl-ethoxy)-pyridin-3-yl]-2-aza-spiro[4.5]decan-1-one]
